Where two headings read alike, the source gives them in different places.
Experiments:
[1] = Capsaicin solubilization experiments with varying Tween 80, visual assessment; format: physicochemical; conditions: capsaicin at 0.05-0.055% concentration
Text: Therefore, it was decided to evaluate the use of the concentrated capsaicin (a white powder) as a replacement for the oily oleoresin capsicum extract. However, as capsaicin powder is hydrophobic it was necessary to determine what quantity of surfactant was necessary to maintain the capsaicin in solution. A study was therefore conducted to determine the required concentration of a chosen surfactant (Tween 80) to achieve and maintain complete dissolution of the capsaicin (assuming a capsaicin concentration of 0.054% w/v). In other words, the level of surfactant required for dissolving the capsaicin in an aqueous vehicle was determined as described below.
A series of experiments were undertaken to prepare various samples with the addition of a set quantity of capsaicin powder (equivalent to 0.05% in solution) and varying concentrations of Tween 80.
Sample 1: 1% Tween 80 was prepared according to the following protocol: […]; Tween 80; […]; and 10 mL stock solution. The sample was sonicated for 2 minutes and then visually assessed. […]
Sample 2: 0.5% Tween 80 was prepared according to the following protocol: […] Tween 80; 0.011 g capsaicin; and 10 mL stock solution. The sample was sonicated for 2 minutes and then visually assessed. […]
All samples were left overnight and visually assessed again on the following day. […]

[2] = cited from earlier work

Structure (SMILES): COc1cc(CNC(=O)CCCC/C=C/C(C)C)ccc1O [capsaicin]
- required concentration of Tween 80 in the stock solution to achieve complete dissolution of capsaicin [1]: 0.5 % w/v

Structure (SMILES): NC(=O)CC[C@@H]1NC(=O)[C@H](Cc2ccccc2)NC(=O)[C@H](Cc2ccc(O)cc2)NC(=O)CCSSC[C@@H](C(=O)N2CCC[C@H]2C(=O)N[C@H](CCCN=C(N)N)C(=O)NCC(N)=O)NC(=O)[C@H](CC(N)=O)NC1=O [desmopressin]
- bio-availability of the nasal spray formulation relative to the nasal drop formulation ([2]; in vivo): two to three times higher

Structure (SMILES): CCC(=O)O[C@]1(C(=O)SCF)[C@H](C)C[C@H]2[C@@H]3C[C@H](F)C4=CC(=O)C=C[C@]4(C)[C@@]3(F)[C@@H](O)C[C@@]21C [fluticasone propionate]
- bio-availability of the nasal spray formulation relative to the nasal drop formulation ([2]; intranasal administration): about eight times higher

Reference: US20150216823A1, “COMPOSITIONS FOR THE TREATMENT OF MIGRAINE HEADACHES AND METHODS THEREOF” (priority 2012, published 2015)
